Reference: article PMC11714206, “Massively Parallel Screening of Toll/Interleukin‐1 Receptor (TIR)‐Derived Peptides Reveals Multiple Toll‐Like Receptors (TLRs)‐Targeting Immunomodulatory Peptides” (Advanced Science, 2024)
Where “and” joins values, the source holds several entries; their conditions need not be identical. Equal entries are not always repeated.

How the values were obtained:
MAL^TIR = target: T1, MAL^TIR (Homo sapiens, UniProt P58753); assay: T‐Surf phage library (P8 and P3) selection against MAL^TIR, four rounds, NGS read counts; type: binding; conditions: for Population: 4th round of selection against MAL TIR, share of NGS reads; for P8_MAL Rank (after) / P8_MAL Rank (before): P8 library; for P3_MAL Rank (after) / P3_MAL Rank (before): P3 library
T1 construct: MAL (residues 79–221); 6xHis; made in house; host or cells: E. coli BL21 (DE3)
Method in brief: (§1)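 Coat TIR domain 5 µg mL^−1 overnight; block 0.2% BSA/PBS 1 h, 4 °C; add phage library 1 h, RT; wash ×4 PBS/0.5% Tween‐20; elute 100 mM HCl, neutralize Tris; amplify in TG1, PEG‐precipitate. Repeat to round 4; barcode PCR, NovaSeq, count reads.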

MyD88^TIR = target: T2, MyD88^TIR (Homo sapiens, UniProt Q99836); assay: T‐Surf phage library (P8 and P3) selection against MyD88^TIR, four rounds, NGS read counts; type: binding; conditions: for Population: 4th round of selection against MyD88 TIR, share of NGS reads; for P3_MyD88 Rank (after) / P3_MyD88 Rank (before): P3 library; for Rank (after): P3_MyD88: rank by count after grouping; for Rank (before): P3_MyD88: rank by count before grouping; for P8_MyD88 Rank (after) / P8_MyD88 Rank (before): P8 library
T2 construct: MyD88 (residues 148–296); 6xHis; made in house; host or cells: E. coli BL21 (DE3)
Method in brief: as §1

[1] = P3_MAL pool: P3 T-Surf phage library
[2] = P3_MyD88 pool: P3 T-Surf phage library
[3] = P3_MAL: rank by count after grouping
[4] = P3_MAL: rank by count before grouping
[5] = selection against MAL TIR, rank by count after grouping
[6] = selection against MAL TIR, rank by count before grouping
[7] = selection against MyD88, rank after grouping
[8] = selection against MyD88, rank before grouping
[9] = 4R selection against MyD88, rank after grouping
[10] = 4R selection against MyD88, rank before grouping
[11] = selection against MAL, rank after grouping
[12] = selection against MAL, rank before grouping
[13] = P8_MAL pool: P8 T-Surf phage library

T1 sequence (P58753 79-221): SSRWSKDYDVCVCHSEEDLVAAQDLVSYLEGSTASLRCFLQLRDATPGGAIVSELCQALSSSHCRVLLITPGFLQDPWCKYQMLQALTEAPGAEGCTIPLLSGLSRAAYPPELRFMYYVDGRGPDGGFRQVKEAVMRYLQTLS
T2 sequence (Q99836 148-296): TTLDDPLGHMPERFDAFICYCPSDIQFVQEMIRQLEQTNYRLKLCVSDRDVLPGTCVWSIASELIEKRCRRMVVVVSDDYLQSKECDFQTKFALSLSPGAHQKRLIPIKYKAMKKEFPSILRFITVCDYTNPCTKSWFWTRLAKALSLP

Q: Which results are given for SSFHEGLWRLLELSKK?
A: Population (MAL^TIR; [1]): 0.00413%; Population (MyD88^TIR; [2]): 0.00466%

Q: LKWGYPWFWDRLRFA was tested. Which “Rank (after)” value (MAL^TIR; [3]) did it give?
A: 123

Q: And the “Rank (before)” value (MAL^TIR; [4])?
A: 329

Q: What about the Population (MyD88^TIR; [2]) of the same sequence?
A: 0.00495%

Q: Which “P8_MAL Rank (after)” value (MAL^TIR; [5]) does the source give for YASSSWALDELLRILY here?
A: 227

Q: And the “P8_MAL Rank (before)” value (MAL^TIR; [6])?
A: 799

Q: And the “P3_MyD88 Rank (after)” value (MyD88^TIR; [7])?
A: 502

Q: What about the “P3_MyD88 Rank (before)” value (MyD88^TIR; [8]) of the same sequence?
A: 1556

Q: Which “P3_MAL Rank (after)” value (MAL^TIR; [5]) does the source give for LKVESCVRRWKKRAN here?
A: 213

Q: And the “P3_MAL Rank (before)” value (MAL^TIR; [6])?
A: 2293

Q: What about the “P3_MyD88 Rank (after)” value (MyD88^TIR; [9]) of the same sequence?
A: 592

Q: What about the “P3_MyD88 Rank (before)” value (MyD88^TIR; [10]) of the same sequence?
A: 2519

Q: With KEVEGWRDALTKVANLSGW as the sequence, how does the “P3_MAL Rank (after)” value (MAL^TIR; [11]) read?
A: 565

Q: What about the “P3_MAL Rank (before)” value (MAL^TIR; [12]) of the same sequence?
A: 3573

Q: What about the “P3_MyD88 Rank (after)” value (MyD88^TIR; [7]) of the same sequence?
A: 522

Q: What about the “P3_MyD88 Rank (before)” value (MyD88^TIR; [8]) of the same sequence?
A: 3634

Q: For SSFREGLWHLLELSKK, which Population (MAL^TIR; [1]) is on record?
A: 0.00413%

Q: What about the Population (MyD88^TIR; [2]) of the same sequence?
A: 0.00553%

Q: Which Population (MAL^TIR; [1]) does the source give for NQWRNALTAAANLNGW here?
A: 0.00564%

Q: And the Population (MyD88^TIR; [2])?
A: 0.00408%

Q: Which Population (MAL^TIR; [1]) does the source give for SIFREGLWRLLELSKK here?
A: 0.0259%

Q: What about the Population (MyD88^TIR; [2]) of the same sequence?
A: 0.00291%

Q: Which results are given for ELDFSHFWLFDGQAGGEA?
A: P8_MAL Rank (after) (MAL^TIR; [5]): 200; P8_MAL Rank (before) (MAL^TIR; [6]): 2049; Population (MyD88^TIR; P8_MyD88 pool: P8 T-Surf phage library): 0.00771%

Q: What does the source list for LQNQWKLALTKVASL?
A: Rank (after) (MAL^TIR; [3]): 132; Rank (before) (MAL^TIR; [4]): 327; Rank (after) (MyD88^TIR): 100; Rank (before) (MyD88^TIR): 374

Q: How did the “P3_MAL Rank (after)” value (MAL^TIR; [11]) turn out when LNGAIRIFGANCVMR was run?
A: 534

Q: What about the “P3_MAL Rank (before)” value (MAL^TIR; [12]) of the same sequence?
A: 2194

Q: What about the “P3_MyD88 Rank (after)” value (MyD88^TIR; [7]) of the same sequence?
A: 494

Q: What about the “P3_MyD88 Rank (before)” value (MyD88^TIR; [8]) of the same sequence?
A: 2400

Q: What does the source list for WFYERLVSLILRDTKV?
A: Population (MAL^TIR; [13]): 0.00432% and 0.00402% and 0.00371% and 0.0034% and 0.00309% and 0.00278%; P8_MyD88 Rank (after) (MyD88^TIR; [9]): 615; P8_MyD88 Rank (before) (MyD88^TIR; [10]): 1356

Q: Which “P3_MAL Rank (after)” value (MAL^TIR; [11]) does the source give for YTALTNSGFHTFREM here?
A: 500

Q: And the “P3_MAL Rank (before)” value (MAL^TIR; [12])?
A: 1548

Q: And the “P3_MyD88 Rank (after)” value (MyD88^TIR; selection against MyD88 TIR, rank by count after grouping)?
A: 213

Q: And the “P3_MyD88 Rank (before)” value (MyD88^TIR; selection against MyD88 TIR, rank by count before grouping)?
A: 1675

Q: Which results are given for DSQSSRFKDDADLVG?
A: P3_MAL Rank (after) (MAL^TIR; [11]): 511; P3_MAL Rank (before) (MAL^TIR; [12]): 1972; Rank (after) (MyD88^TIR): 141; Rank (before) (MyD88^TIR): 635

Q: With RNFVAYLFQALANKGI as the sequence, how does the Population (MAL^TIR; [13]) read?
A: 0.0034%

Q: And the “P8_MyD88 Rank (after)” value (MyD88^TIR; [7])?
A: 483

Q: And the “P8_MyD88 Rank (before)” value (MyD88^TIR; [8])?
A: 3397

Q: How did the “P3_MAL Rank (after)” value (MAL^TIR; [11]) turn out when NQWRNALTAAANLRL was run?
A: 550

Q: What about the “P3_MAL Rank (before)” value (MAL^TIR; [12]) of the same sequence?
A: 3366

Q: And the “P3_MyD88 Rank (after)” value (MyD88^TIR; [7])?
A: 507

Q: What about the “P3_MyD88 Rank (before)” value (MyD88^TIR; [8]) of the same sequence?
A: 3498

Q: With LKVESWRQSREKAGKL as the sequence, how does the “P3_MAL Rank (after)” value (MAL^TIR; [11]) read?
A: 557

Q: What about the “P3_MAL Rank (before)” value (MAL^TIR; [12]) of the same sequence?
A: 2266

Q: What about the “P3_MyD88 Rank (after)” value (MyD88^TIR; [7]) of the same sequence?
A: 512

Q: What about the “P3_MyD88 Rank (before)” value (MyD88^TIR; [8]) of the same sequence?
A: 2480

Q: For KEVEGWRDALTAAANLSGW, which Population (MAL^TIR; [1]) is on record?
A: 0.00376%

Q: And the “Rank (after)” value (MAL^TIR; [3])?
A: 112

Q: And the “Rank (before)” value (MAL^TIR; [4])?
A: 177

Q: What about the Population (MyD88^TIR; [2]) of the same sequence?
A: 0.00437%

Q: What does the source list for LKVESWRQALEKRAN?
A: Rank (after) (MAL^TIR; [3]): 122; Rank (before) (MAL^TIR; [4]): 331; Rank (after) (MyD88^TIR): 99; Rank (before) (MyD88^TIR): 383

Q: Which Population (MAL^TIR; [1]) does the source give for SSFREGPWRLLELSKK here?
A: 0.00338%

Q: What about the Population (MyD88^TIR; [2]) of the same sequence?
A: 0.00466%

Q: For SFFGINCVIICQRRS, which “Rank (after)” value (MAL^TIR; [3]) is on record?
A: 126

Q: What about the “Rank (before)” value (MAL^TIR; [4]) of the same sequence?
A: 360

Q: What about the “P3_MyD88 Rank (after)” value (MyD88^TIR; [7]) of the same sequence?
A: 545

Q: And the “P3_MyD88 Rank (before)” value (MyD88^TIR; [8])?
A: 2934

Q: For YAFTGHLHRYLVQHCE, which “Rank (after)” value (MAL^TIR; [3]) is on record?
A: 115

Q: What about the “Rank (before)” value (MAL^TIR; [4]) of the same sequence?
A: 207

Q: What about the “Rank (after)” value (MyD88^TIR) of the same sequence?
A: 169

Q: And the “Rank (before)” value (MyD88^TIR)?
A: 841

Q: Which Population (MAL^TIR; [1]) does the source give for KMQKWKDALYEAANLSGW here?
A: 0.0124%

Q: And the “Rank (after)” value (MAL^TIR; [3])?
A: 105

Q: What about the “Rank (before)” value (MAL^TIR; [4]) of the same sequence?
A: 109

Q: And the Population (MyD88^TIR; [2])?
A: 0.00437%

Q: KEVEGWRDALTKVANLV was tested. Which “Rank (after)” value (MAL^TIR; [3]) did it give?
A: 134

Q: And the “Rank (before)” value (MAL^TIR; [4])?
A: 489

Q: And the Population (MyD88^TIR; [2])?
A: 0.00349%

Q: Which results are given for YTALTNSGFHTFRDND?
A: Rank (after) (MAL^TIR; P8_MAL: rank by count after grouping): 105; Rank (before) (MAL^TIR; P8_MAL: rank by count before grouping): 584; Population (MyD88^TIR; [2]): 0.00291%
